Data: patent US20210085796A1, “ANTICANCER DRUGS AND METHODS OF MAKING AND USING SAME” (YALE UNIVERSITY, priority 2017, published 2021)
“Also recorded” adds a separate entry of the source.

Columns and labels:
[1] = test system: MDA-MB-231 breast cancer cells; experiment: pH-dependent cell growth inhibition (CellTiter-Glo); type: cell-based, Human; conditions: 6 hours treatment at pH 7.4 or pH 6.2, then 72 hours growth
Procedure: Cells treated for 6 hours at pH 7.4 (normal physiological pH, X traces) or pH 6.2 (acidic solid tumor pH, Y traces) were subsequently allowed to grow in normal growth medium for 72 hours, then cell viability was evaluated using the CellTiter-Glo assay kit (Promega). Normalized percent cell growth inhibition is plotted on the left side of each panel and IC50 values reported at each pH from non-linear regression analysis.
(§1) In order to evaluate pH-dependent activity, treatments are performed at atypical cell culture conditions. […] Several cell lines have been evaluated using this method and for each, cell seeding density and treatment duration is independently experimentally determined. Each experiment is normalized to sham and complete activity controls for each pH condition.
Human MDA-MB-231 breast cancer cells seeded at low density on tissue culture treated 384-well plates, allowed to adhere and grow in serum-supplemented growth medium for 24 hours, then treated under pH-controlled conditions for 6 hours, and finally washed and grown in fresh growth media for 72 hours were assessed for cell survival using the CellTiter-Glo assay system (Promega) (FIG. 6).

EMT-6 flank tumors = experiment: In vivo efficacy and toxicity in EMT-6 flank tumor model; parameters: species or system Balb/c mice; conditions: IV once daily for 5 days
From the text: FIG. 7 depicts representative in vivo study on the efficacy and toxicity of compounds of the invention. […] Mean tumor volume and mean body weight graphs are shown for groups of 10 tumor-bearing mice.
FIG. 8 depicts the dose dependence of YU241531 (right panel) and YU244206 (left panel) treatments in the EMT-6 tumor model in Balb/c mice.

[2] = Serum stability of prodrug (LCMS, 490 nm absorbance); type: in vitro ADME; conditions: 50 μM in PBS pH 7.4 with 20% mouse serum, 37° C., 6 hours of incubation
Procedure: FIG. 4A depicts liquid chromatography data showing the stability of YU241528 in serum.
The prodrug strategies of this invention are thought to impart their benefits during the distribution and cell uptake steps of anticancer therapy. In certain embodiments, a prodrug is stable in the blood for a period sufficient to allow for cell uptake and systemic clearance. To test this, 50 μM YU241528 in a solution of PBS, pH 7.4, containing 20% mouse serum was incubated at 37° C. At regular intervals, aliquots were taken and mixed with 2 volumes of ethanol to precipitate serum proteins, then centrifuged. Supernatants were analyzed by LCMS. […] The predominant peak was identified as YU241528 by mass spectrometry.

[3] = Reductive activation / doxorubicin release in 5 mM GSH (LCMS); type: in vitro ADME; conditions: 50 μM, PBS pH 7.4, 5 mM GSH, 37° C.
Procedure: In certain embodiments, the prodrug releases the active form of the drug once inside a cancer cell. Once inside the cell, drug release can be triggered by reduction of the disulfide bond in the linker. To evaluate the reductive activation of drug release, 50 μM YU241528 in a solution of PBS, pH 7.4, containing 5 mM GSH (a typical intracellular concentration of the predominant biological reducing agent) was incubated at 37° C. Aliquots were taken at regular intervals and analyzed by LCMS.

HeLa cells = experiment: pH-dependent cell uptake by flow cytometry; type: cell-based; conditions: 5 μM, 1 hour, pH 7.4 vs pH 6.5
From the text: FIGS. 5A-5B depict representative flow cytometry traces of pH-dependent cell treatments. […] Normalized cell counts (Y-axes) are plotted vs. doxorubicin fluorescence intensity per cell (X-axes).

[4] = Blood levels after tail vein injection; type: in vivo, adult female balb/c mice
Procedure: Given that the drug's distribution and clearance can be expected to be substantially complete by about 6 hours after administration, in certain embodiments the peak intracellular dose is achieved long before this process might interfere to a significant degree, even assuming the altered metabolite is indeed compromised in its activity. […] In certain embodiments, the serum stability of YU241528 allows for effective therapy. […] In certain embodiments, the prodrug undergoes a different elimination path, as hepatobiliary elimination of weakly-ionic organic substances is sensitive to charge, size, and lipophilicity.

[5] = cited from earlier work
[6] = test system: PEO1 ovarian cancer cells; experiment: pH-dependent cell growth inhibition, transient treatment; type: cell-based; conditions: for pH dependence of cell growth inhibition: pH 7.4 vs pH 6.2
Procedure: FIG. 9 depicts pH-dependent cell growth inhibition of PEO1 ovarian cancer cells in culture, treated transiently with various prodrugs of the invention, as described above.
FIG. 10 depicts pH-dependent cell growth inhibition of PEO1 ovarian cancer cells in culture, treated transiently with an anticancer kinase inhibitor drug, Osimertinib, or a compound of the invention, based on an active core of that drug, YU253673.
as §1
Similar results have been obtained from pH-dependent cell growth inhibition assays with other classes of Drug using the prodrug approach.

Row | Molecule | pH dependence of cell growth inhibition [1] | body weight loss compared to sham treated controls (EMT-6 flank tumors) | pH preference of cell uptake (HeLa cells) | pH dependence of cell growth inhibition [6] | other results
1 | COc1cccc2c1C(=O)c1c(O)c3c(c(O)c1C2=O)C[C@@](O)(C(=O)CO)C[C@@H]3O[C@H]1C[C@H](NC(=O)OCCSSCCCc2c(F)c(F)c(O)c(F)c2F)[C@H](O)[C@H](C)O1 [YU244206, 2-((3-(2,3,5,6-tetrafluoro-4-hydroxyphenyl)propyl)disulfaneyl)ethyl ((2S,3S,4S,6R)-3-hydroxy-2-methyl-6-(((1S,3S)-3,5,12-trihydroxy-3-(2-hydroxyacetyl)-10-methoxy-6,11-dioxo-1,2,3,4,6,11-hexahydrotetracen-1-yl)oxy)tetrahydro-2H-pyran-4-yl)carbamate] | greater growth inhibition at acidic tumor pH | no detectable weight loss |  |  | 
2 | COc1cccc2c1C(=O)c1c(O)c3c(c(O)c1C2=O)C[C@@](O)(C(=O)CO)C[C@@H]3O[C@H]1C[C@H](NC(=O)OCCSSCCCCCCCC(=O)O)[C@H](O)[C@H](C)O1 [YU241531, 8-((2-((((2S,3S,4S,6R)-3-hydroxy-2-methyl-6-(((1S,3S)-3,5,12-trihydroxy-3-(2-hydroxyacetyl)-10-methoxy-6,11-dioxo-1,2,3,4,6,11-hexahydrotetracen-1-yl)oxy)tetrahydro-2H-pyran-4-yl)carbamoyl)oxy)ethyl)disulfaneyl)octanoic acid] | greater growth inhibition at acidic tumor pH | no detectable weight loss |  |  | 
3 | 8-((2-((((2S,3S,4S,6R)-3-hydroxy-2-methyl-6-(((1S,3S)-3,5,12-trihydroxy-3-(2-hydroxyacetyl)-10-methoxy-6,11-dioxo-1,2,3,4,6,11-hexahydrotetracen-1-yl)oxy)tetrahydro-2H-pyran-4-yl)carbamoyl)oxy)ethyl)disulfaneyl)-2,2-dimethyloctanoic acid [YU241528] |  |  | preferentially taken up by cells at cancerous pH 6.5 versus cells at normal pH 7.4 |  | release of free doxorubicin / stability in serum [2]: no active doxorubicin is released; also recorded: no free doxorubicin was detected; also recorded: stable in serum; t1/2 of reduction of the disulfide [3]: ~2.7 min; non-compartmental half-life in blood [4]: about 1 hour; level in the blood at 6 hours post injection ([4]; 6 hours): remains at detectable levels; level in the blood at 24 hours post injection ([4]; 24 hours): undetectable
4 | COc1cccc2c1C(=O)c1c(O)c3c(c(O)c1C2=O)C[C@@](O)(C(=O)CO)C[C@@H]3O[C@H]1C[C@H](N)[C@H](O)[C@H](C)O1 [Doxorubicin, reference compound] | greater growth inhibition at basic healthy pH |  | greater uptake into cells at normal physiologic pH 7.4 than into cells at cancerous pH 6.5 |  | basic pKA of amine group [5]: ~8
5 | C=CC(=O)Nc1cc(Nc2nccc(-c3cn(C)c4ccccc34)n2)c(OC)cc1N(C)CCCc1c(F)c(F)c(O)c(F)c1F [YU253673, N-(4-methoxy-2-(methyl(3-(2,3,5,6-tetrafluoro-4-hydroxyphenyl)propyl)amino)-5-((4-(1-methyl-1H-indol-3-yl)pyrimidin-2-yl)amino)phenyl)acrylamide] |  |  |  | far greater activity at tumor pH 6.2 | cell growth inhibition at pH 6.2 ([6]; pH 6.2): potent cell growth inhibition; fold greater activity in tumor pH conditions compared with healthy pH conditions ([6]; pH 6.2 vs pH 7.4): more than 30 fold; cell growth inhibition at pH 7.4 ([6]; pH 7.4): no observed activity
6 | C=CC(=O)Nc1cc(Nc2nccc(-c3cn(C)c4ccccc34)n2)c(OC)cc1N(C)CCN(C)C [Osimertinib, reference compound] |  |  |  | slightly lower IC50 value at healthy pH 7.4 | 
